Source: the supplement of paper PMC10307832

What was measured:
Assay in all cases: relative viability (nuclei count vs DMSO), 5 days (fraction); higher = more cells survive
Afatinib + OSI-027 = compound: CN(C)C/C=C/C(=O)Nc1cc2c(Nc3ccc(F)c(Cl)c3)ncnc2cc1O[C@H]1CCOC1 [Afatinib] + COc1cccc2cc(-c3nc([C@H]4CC[C@H](C(=O)O)CC4)n4ncnc(N)c34)[nH]c12 [OSI-027] (partner 0.5 µM)
How it was run: (§1)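 For relative viability, nuclei counts in treated wells were divided by those in vehicle wells. Lung cancer cell lines had been pin-tool dosed in 1536-well plates the day after seeding and cultured for 5 days, then fixed and stained in one step (final 0.05% Triton X-100, 1% formaldehyde, 1 ug/ml Hoechst) and imaged at 4×. Doses were one drug alone or a fixed anchor-drug dose plus five library-drug doses (not always all listed) in √10 steps, and values are duplicate-plate medians.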

Afatinib + Luminespib = compound: CN(C)C/C=C/C(=O)Nc1cc2c(Nc3ccc(F)c(Cl)c3)ncnc2cc1O[C@H]1CCOC1 [Afatinib] + CCNC(=O)c1noc(-c2cc(C(C)C)c(O)cc2O)c1-c1ccc(CN2CCOCC2)cc1 [Luminespib] (partner 0.01 µM)
How it was run: as §1

Afatinib + Linsitinib = compound: CN(C)C/C=C/C(=O)Nc1cc2c(Nc3ccc(F)c(Cl)c3)ncnc2cc1O[C@H]1CCOC1 [Afatinib] + C[C@]1(O)C[C@@H](c2nc(-c3ccc4ccc(-c5ccccc5)nc4c3)c3c(N)nccn32)C1 [Linsitinib] (partner 1 µM)
How it was run: as §1

Afatinib + Lapatinib = compound: CN(C)C/C=C/C(=O)Nc1cc2c(Nc3ccc(F)c(Cl)c3)ncnc2cc1O[C@H]1CCOC1 [Afatinib] + CS(=O)(=O)CCNCc1ccc(-c2ccc3ncnc(Nc4ccc(OCc5cccc(F)c5)c(Cl)c4)c3c2)o1 [Lapatinib] (partner 2 µM)
How it was run: as §1

Cell Line	relative viability (Afatinib + OSI-027; first compound 0.005 µM)	relative viability (Afatinib + OSI-027; first compound 0.01581 µM)	relative viability (Afatinib + OSI-027; first compound 0.05 µM)	relative viability (Afatinib + OSI-027; first compound 0.1581 µM)	relative viability (Afatinib + OSI-027; first compound 0.5 µM)	relative viability (Afatinib + Luminespib; first compound 0.005 µM)	relative viability (Afatinib + Luminespib; first compound 0.01581 µM)	relative viability (Afatinib + Luminespib; first compound 0.05 µM)	relative viability (Afatinib + Luminespib; first compound 0.1581 µM)	relative viability (Afatinib + Luminespib; first compound 0.5 µM)	relative viability (Afatinib + Linsitinib; first compound 0.005 µM)	relative viability (Afatinib + Linsitinib; first compound 0.01581 µM)	relative viability (Afatinib + Linsitinib; first compound 0.05 µM)	relative viability (Afatinib + Linsitinib; first compound 0.1581 µM)	relative viability (Afatinib + Linsitinib; first compound 0.5 µM)	relative viability (Afatinib + Lapatinib; first compound 0.005 µM)	relative viability (Afatinib + Lapatinib; first compound 0.01581 µM)	relative viability (Afatinib + Lapatinib; first compound 0.05 µM)	relative viability (Afatinib + Lapatinib; first compound 0.1581 µM)	relative viability (Afatinib + Lapatinib; first compound 0.5 µM)
LCLC-97TM1	0.561	0.502	0.629	0.43	0.457	0.785	0.862	0.708	0.722	0.68	0.176	0.179	0.167	0.156	0.205	1.11	0.837	1.11	0.688	0.568
HCC-15	0.708	0.753	0.733	0.724	0.547	0.352	0.56	0.313	0.48	0.34	0.845	0.894	0.849	0.854	0.788	0.84	0.92	0.859	0.859	0.82
NCI-H647	0.582	0.629	0.487	0.705	0.554	0.169	0.26	0.12	0.183	0.158	1.1	1.22	1.24	1.27	1.18	1.09	0.948	1.16	1.24	1.2
SW 1573	0.607	0.516	0.644	0.541	0.618	0.141	0.262	0.247	0.214	0.214	0.773	0.865	0.649	0.731	0.703	1.03	1.09	1.14	1.07	1.27
NCI-H1651	0.688	0.618	0.61	0.67	0.627	0.923	0.817	1.03	0.835	0.726	1.12	0.983	0.847	0.906	0.815	0.925	0.841	0.763	0.834	0.803
NCI-H1792	0.662	0.762	0.707	0.672	0.735	0.389	0.695	0.464	0.376	0.41	0.533	0.616	0.497	0.533	0.484	0.999	0.783	0.825	0.972	0.971
NCI-H2023	0.38	0.354	0.394	0.351	0.279	0.85	0.711	0.756	0.594	0.71	0.577	0.494	0.453	0.355	0.414	0.744	0.853	0.896	0.809	0.964
COR-L 105	0.346	0.252	0.265	0.245	0.27	0.678	0.476	0.445	0.307	0.272	0.418	0.207	0.403	0.258	0.278	0.311	0.385	0.344	0.31	0.343
NCI-H1734	0.671	0.624	0.587	0.57	0.511	0.209	0.225	0.196	0.197	0.19	0.9	0.75	0.931	0.865	0.771	1.06	1.01	1.06	1.01	1.09
NCI-H3122	1.03	0.922	0.977	0.951	0.881	0.103	0.0816	0.0898	0.0996	0.0859	1.02	1.02	0.963	0.822	1.08	1.03	1.02	1.05	0.992	1.04
CAL-12T	0.75	0.456	0.392	0.307	0.374	0.865	0.595	0.361	0.279	0.27	0.732	0.584	0.65	0.409	0.399	0.694	0.757	0.714	0.546	0.638
NCI-H2085	0.71	0.61	0.541	0.366	0.366	0.405	0.396	0.409	0.32	0.296	0.726	0.773	0.769	0.417	0.675	0.857	0.762	0.851	0.743	0.76
